Experimental data reported in ChEMBL document CHEMBL3124838, “Discovery of 6-aryl-azabenzimidazoles that inhibit the TBK1/IKK-ε kinases” (Bioorg Med Chem Lett, 2014).

Legend:
[1] = molecular target: Phosphatidylinositol 4-phosphate 5-kinase type-1 gamma (Homo sapiens) (UniProt O60331); test: Inhibition of human PIP5K1gamma assessed as residual activity at 1 uM relative to control
[2] = molecular target: Ephrin type-A receptor 5 (Homo sapiens) (UniProt P54756); test: Inhibition of human EPHA5 assessed as residual activity at 1 uM relative to control
[3] = molecular target: Tyrosine-protein kinase receptor UFO (Homo sapiens) (UniProt P30530); test: Inhibition of human AXL assessed as residual activity at 1 uM relative to control
Chain of Tyrosine-protein kinase receptor UFO (Homo sapiens) (P30530 whole entry): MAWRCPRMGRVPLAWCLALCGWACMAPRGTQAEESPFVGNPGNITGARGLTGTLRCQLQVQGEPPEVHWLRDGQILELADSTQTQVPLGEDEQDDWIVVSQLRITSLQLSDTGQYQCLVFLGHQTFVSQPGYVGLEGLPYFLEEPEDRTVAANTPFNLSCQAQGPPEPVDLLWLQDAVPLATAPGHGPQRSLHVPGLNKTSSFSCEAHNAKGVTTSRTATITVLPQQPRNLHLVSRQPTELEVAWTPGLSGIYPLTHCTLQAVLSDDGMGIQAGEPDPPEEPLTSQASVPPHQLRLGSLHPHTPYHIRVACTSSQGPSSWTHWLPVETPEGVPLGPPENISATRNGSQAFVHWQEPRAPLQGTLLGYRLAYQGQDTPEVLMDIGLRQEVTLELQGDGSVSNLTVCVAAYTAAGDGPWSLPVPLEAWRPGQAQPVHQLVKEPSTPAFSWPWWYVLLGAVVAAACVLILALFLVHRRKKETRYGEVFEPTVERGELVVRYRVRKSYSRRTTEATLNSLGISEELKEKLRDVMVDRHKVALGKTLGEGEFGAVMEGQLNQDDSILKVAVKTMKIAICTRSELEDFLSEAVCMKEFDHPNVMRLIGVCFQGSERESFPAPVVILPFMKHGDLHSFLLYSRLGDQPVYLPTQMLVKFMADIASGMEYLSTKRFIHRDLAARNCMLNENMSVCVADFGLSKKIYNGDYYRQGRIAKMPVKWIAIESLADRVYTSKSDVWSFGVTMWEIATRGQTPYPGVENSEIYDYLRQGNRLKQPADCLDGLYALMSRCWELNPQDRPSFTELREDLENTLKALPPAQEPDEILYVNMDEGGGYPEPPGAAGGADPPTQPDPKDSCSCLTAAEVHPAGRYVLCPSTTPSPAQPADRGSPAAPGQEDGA

[4] = molecular target: Insulin receptor (Homo sapiens) (UniProt P06213); test: Inhibition of human IR assessed as residual activity at 1 uM relative to control
Chain of Insulin receptor (Homo sapiens) (P06213 28-758 limits assumed): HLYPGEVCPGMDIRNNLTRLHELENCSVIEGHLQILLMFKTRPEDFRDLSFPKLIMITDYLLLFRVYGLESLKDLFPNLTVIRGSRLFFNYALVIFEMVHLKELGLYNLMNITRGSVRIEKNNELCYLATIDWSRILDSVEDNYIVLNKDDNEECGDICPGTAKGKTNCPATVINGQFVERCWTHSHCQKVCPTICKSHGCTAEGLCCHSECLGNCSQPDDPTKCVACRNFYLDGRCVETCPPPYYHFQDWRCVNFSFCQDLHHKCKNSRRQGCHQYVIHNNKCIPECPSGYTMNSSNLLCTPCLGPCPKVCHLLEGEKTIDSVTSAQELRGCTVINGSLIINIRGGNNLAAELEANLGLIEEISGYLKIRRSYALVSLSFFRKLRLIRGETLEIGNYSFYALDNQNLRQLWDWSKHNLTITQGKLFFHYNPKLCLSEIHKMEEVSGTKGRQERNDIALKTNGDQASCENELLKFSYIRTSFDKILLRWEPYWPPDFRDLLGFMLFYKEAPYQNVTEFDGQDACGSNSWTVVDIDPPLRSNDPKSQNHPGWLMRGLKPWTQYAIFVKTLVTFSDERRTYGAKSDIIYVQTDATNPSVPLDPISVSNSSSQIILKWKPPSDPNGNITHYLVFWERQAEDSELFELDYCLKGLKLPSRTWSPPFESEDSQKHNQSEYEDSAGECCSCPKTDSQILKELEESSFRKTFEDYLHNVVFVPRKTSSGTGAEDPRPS
Chain of Insulin receptor (Homo sapiens) (P06213 763-1382 limits assumed): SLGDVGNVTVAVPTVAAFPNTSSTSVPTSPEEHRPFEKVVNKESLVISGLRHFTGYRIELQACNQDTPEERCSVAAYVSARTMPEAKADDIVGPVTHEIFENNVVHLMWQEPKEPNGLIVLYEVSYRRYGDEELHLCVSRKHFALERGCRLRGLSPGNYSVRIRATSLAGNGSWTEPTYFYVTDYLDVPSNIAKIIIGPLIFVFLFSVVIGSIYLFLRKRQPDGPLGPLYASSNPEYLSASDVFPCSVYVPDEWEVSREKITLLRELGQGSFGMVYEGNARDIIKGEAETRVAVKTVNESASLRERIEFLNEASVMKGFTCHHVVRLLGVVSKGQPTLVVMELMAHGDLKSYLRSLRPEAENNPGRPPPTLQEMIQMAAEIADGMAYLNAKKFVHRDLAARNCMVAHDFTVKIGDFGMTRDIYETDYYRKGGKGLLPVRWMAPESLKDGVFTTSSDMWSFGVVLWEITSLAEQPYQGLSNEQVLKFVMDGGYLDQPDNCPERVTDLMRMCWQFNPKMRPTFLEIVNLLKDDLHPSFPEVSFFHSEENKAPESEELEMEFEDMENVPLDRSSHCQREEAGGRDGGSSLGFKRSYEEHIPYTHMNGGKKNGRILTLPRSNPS

[5] = molecular target: CDK2/Cyclin A2 (Homo sapiens) (UniProt P24941+P20248); test: Inhibition of human CDK2/cyclin A assessed as residual activity at 1 uM relative to control; type: protein-complex assay
[6] = molecular target: T1, Serine/threonine-protein kinase Sgk1 (Homo sapiens) (UniProt O00141); test: Inhibition of human SGK assessed as residual activity at 1 uM relative to control
T1 sequence (whole entry): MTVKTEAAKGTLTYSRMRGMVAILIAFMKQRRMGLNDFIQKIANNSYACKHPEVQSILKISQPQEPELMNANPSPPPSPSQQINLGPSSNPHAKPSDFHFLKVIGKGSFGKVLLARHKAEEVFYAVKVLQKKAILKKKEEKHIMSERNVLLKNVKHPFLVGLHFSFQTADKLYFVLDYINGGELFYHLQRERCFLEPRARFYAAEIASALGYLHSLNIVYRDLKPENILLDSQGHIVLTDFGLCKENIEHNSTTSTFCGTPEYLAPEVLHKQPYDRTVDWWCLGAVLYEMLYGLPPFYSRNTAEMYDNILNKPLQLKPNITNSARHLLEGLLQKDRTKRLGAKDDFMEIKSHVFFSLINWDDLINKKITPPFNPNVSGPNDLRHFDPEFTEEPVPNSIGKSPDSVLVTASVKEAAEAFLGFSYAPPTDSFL

[7] = molecular target: Fibroblast growth factor receptor 4 (Homo sapiens) (UniProt P22455); test: Inhibition of human FGFR4 assessed as residual activity at 1 uM relative to control
Chain of Fibroblast growth factor receptor 4 (Homo sapiens) (P22455 22-802 limits assumed): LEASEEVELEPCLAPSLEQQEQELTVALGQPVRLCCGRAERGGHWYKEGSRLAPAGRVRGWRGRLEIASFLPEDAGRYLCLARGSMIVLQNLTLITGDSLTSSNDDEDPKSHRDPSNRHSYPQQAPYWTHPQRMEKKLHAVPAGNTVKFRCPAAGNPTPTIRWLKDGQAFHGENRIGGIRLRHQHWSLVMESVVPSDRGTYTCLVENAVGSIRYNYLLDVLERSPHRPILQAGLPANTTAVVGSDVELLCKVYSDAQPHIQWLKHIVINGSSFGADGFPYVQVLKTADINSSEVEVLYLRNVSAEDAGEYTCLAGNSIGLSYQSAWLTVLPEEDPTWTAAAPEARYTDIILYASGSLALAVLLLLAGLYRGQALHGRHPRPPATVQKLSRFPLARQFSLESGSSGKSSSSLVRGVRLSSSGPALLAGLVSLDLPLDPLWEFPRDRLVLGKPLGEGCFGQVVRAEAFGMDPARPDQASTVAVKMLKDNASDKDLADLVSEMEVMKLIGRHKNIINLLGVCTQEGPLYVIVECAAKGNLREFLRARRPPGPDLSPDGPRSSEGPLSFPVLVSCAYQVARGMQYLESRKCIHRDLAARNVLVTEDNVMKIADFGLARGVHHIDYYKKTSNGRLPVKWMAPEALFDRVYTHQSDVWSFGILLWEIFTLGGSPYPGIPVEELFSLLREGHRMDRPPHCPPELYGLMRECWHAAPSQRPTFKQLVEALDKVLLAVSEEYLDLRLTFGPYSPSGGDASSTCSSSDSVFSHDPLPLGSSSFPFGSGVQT

[8] = molecular target: T2, Serine/threonine-protein kinase ULK2 (Homo sapiens) (UniProt Q8IYT8); test: Inhibition of human ULK2 assessed as residual activity at 1 uM relative to control
T2 sequence (whole entry): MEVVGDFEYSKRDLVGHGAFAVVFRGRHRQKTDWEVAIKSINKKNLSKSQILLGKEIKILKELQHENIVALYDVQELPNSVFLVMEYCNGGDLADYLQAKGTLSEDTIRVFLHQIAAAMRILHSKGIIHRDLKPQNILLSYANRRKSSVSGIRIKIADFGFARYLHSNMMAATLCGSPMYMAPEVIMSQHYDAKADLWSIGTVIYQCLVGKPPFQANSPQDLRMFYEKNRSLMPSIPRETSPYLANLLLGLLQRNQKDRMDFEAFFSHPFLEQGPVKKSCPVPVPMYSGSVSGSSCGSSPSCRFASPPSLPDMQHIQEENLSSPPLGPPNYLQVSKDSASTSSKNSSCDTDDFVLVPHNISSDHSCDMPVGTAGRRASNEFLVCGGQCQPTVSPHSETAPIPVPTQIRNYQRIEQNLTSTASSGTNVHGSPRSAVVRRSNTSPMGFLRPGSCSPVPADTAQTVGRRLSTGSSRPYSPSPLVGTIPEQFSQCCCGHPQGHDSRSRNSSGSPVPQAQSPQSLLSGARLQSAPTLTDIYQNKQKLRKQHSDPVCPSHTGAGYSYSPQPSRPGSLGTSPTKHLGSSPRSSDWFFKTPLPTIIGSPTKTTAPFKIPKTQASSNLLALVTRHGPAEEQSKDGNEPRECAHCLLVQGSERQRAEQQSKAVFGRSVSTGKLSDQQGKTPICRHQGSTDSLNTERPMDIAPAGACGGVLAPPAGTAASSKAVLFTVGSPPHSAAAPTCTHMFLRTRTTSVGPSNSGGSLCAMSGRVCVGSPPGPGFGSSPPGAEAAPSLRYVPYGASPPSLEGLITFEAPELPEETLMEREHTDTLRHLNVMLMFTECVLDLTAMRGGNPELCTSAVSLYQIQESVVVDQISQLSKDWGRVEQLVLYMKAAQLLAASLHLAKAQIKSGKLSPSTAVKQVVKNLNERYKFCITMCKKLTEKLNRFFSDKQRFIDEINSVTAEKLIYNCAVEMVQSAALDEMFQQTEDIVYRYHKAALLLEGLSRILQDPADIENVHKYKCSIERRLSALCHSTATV

[9] = molecular target: Calcium/calmodulin-dependent protein kinase type 1 (Homo sapiens) (UniProt Q14012); test: Inhibition of human CaMK1 assessed as residual activity at 1 uM relative to control
Chain of Calcium/calmodulin-dependent protein kinase type 1 (Homo sapiens) (Q14012 whole entry, looked up): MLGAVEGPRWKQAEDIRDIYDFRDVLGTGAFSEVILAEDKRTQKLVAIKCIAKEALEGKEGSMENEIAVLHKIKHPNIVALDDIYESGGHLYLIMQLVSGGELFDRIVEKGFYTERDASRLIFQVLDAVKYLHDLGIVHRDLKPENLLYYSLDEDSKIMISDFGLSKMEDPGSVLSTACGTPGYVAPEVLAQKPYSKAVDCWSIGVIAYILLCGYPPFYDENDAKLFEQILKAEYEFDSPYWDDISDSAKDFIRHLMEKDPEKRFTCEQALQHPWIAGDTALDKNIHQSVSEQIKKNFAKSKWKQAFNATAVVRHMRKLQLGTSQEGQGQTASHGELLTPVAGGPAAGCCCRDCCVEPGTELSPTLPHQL

[10] = molecular target: Protein kinase C alpha type (Homo sapiens) (UniProt P17252); test: Inhibition of human PKCalpha assessed as residual activity at 1 uM relative to control
[11] = molecular target: T3, MAP kinase-activated protein kinase 5 (Homo sapiens) (UniProt Q8IW41); test: Inhibition of human PRAK assessed as residual activity at 1 uM relative to control
T3 sequence (whole entry): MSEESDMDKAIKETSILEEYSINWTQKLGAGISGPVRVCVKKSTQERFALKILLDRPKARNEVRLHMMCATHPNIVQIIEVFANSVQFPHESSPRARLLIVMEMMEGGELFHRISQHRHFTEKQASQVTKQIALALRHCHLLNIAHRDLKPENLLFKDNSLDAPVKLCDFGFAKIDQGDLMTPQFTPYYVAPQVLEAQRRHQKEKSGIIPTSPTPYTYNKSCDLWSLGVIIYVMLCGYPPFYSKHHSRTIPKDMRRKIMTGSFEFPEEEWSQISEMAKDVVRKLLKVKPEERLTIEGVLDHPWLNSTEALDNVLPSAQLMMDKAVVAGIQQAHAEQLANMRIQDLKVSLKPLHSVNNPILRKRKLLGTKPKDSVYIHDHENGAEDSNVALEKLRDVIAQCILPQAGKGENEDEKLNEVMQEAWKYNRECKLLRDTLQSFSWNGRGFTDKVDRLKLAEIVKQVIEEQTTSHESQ

[12] = molecular target: Protein-tyrosine kinase 6 (Homo sapiens) (UniProt Q13882); test: Inhibition of human BRK assessed as residual activity at 1 uM relative to control
Chain of Protein-tyrosine kinase 6 (Homo sapiens) (Q13882 whole entry, looked up, canonical isoform): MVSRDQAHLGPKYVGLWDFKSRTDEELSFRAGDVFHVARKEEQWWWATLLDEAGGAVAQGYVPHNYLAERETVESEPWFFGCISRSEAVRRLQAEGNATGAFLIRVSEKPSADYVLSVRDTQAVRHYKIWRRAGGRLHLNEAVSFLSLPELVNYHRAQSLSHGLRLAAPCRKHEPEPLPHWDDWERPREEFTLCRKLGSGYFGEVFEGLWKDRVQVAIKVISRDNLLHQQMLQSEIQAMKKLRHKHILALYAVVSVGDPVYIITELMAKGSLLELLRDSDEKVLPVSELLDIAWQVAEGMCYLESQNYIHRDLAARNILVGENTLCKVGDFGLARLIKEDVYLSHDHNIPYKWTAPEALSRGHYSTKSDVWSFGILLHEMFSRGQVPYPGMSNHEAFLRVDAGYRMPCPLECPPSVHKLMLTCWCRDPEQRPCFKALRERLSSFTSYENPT

[13] = molecular target: Phosphatidylinositol 4,5-bisphosphate 3-kinase catalytic subunit gamma isoform (Homo sapiens) (UniProt P48736); test: Inhibition of human PI3K p120gamma assessed as residual activity at 1 uM relative to control
[14] = system: Proto-oncogene tyrosine-protein kinase receptor Ret (Homo sapiens), P07949 [V804L]; test: Inhibition of human RET V804L mutant assessed as residual activity at 1 uM relative to control
Chain of Proto-oncogene tyrosine-protein kinase receptor Ret (Homo sapiens), P07949 [V804L] (P07949 whole entry V804L): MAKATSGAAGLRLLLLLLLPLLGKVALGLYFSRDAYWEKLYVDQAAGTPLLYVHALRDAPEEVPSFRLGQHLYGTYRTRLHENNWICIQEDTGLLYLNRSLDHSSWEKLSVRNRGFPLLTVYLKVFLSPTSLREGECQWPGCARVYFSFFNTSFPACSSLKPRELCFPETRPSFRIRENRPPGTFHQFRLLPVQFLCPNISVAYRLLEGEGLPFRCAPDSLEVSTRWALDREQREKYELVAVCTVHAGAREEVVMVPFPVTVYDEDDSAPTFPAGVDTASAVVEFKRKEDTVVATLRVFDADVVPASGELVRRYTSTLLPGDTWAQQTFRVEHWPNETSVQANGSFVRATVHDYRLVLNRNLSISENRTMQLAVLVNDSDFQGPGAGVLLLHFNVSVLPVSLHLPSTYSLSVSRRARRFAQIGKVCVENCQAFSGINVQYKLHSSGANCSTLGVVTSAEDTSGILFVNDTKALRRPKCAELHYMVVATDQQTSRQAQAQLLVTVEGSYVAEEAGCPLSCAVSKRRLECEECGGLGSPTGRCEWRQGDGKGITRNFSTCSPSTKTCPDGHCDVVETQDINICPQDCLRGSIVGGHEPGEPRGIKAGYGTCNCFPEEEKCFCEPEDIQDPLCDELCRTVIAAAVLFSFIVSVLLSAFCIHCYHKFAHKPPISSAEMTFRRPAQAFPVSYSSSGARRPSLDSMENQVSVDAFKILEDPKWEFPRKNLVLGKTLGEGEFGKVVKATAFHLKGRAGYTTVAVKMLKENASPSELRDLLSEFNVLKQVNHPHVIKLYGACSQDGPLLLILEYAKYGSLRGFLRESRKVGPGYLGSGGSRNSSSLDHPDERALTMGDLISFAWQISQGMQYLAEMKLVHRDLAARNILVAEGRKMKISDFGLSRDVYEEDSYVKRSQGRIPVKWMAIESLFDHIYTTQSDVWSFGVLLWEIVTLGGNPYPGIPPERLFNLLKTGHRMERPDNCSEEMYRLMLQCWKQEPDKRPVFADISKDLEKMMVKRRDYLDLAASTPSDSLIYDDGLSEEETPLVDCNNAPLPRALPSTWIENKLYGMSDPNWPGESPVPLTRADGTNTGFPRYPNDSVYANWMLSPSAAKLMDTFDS

Activity [1] [%]	Activity [2] [%]	Activity [3] [%]	Activity [4] [%]	Activity [5] [%]	Activity [6] [%]	Activity [7] [%]	Activity [8] [%]	Activity [9] [%]	Activity [10] [%]	Activity [11] [%]	Activity [12] [%]	Activity [13] [%]	Activity [14] [%]	Structure (SMILES)
93	76	98	80	92	78	102	40	83	89	102	112	90	5	COc1ccc(-c2nc3cc(-c4csc(C(=O)NCCC(C)C)c4)cnc3[nH]2)cc1
86	77	103	92	98	82	109	53	97	91	115	102	85	13	COc1ccc(-c2nc3cc(-c4csc(C(=O)NCC(C)(C)C)c4)cnc3[nH]2)cc1
88	72	98	102	103	102	109	42	102	101	112	110	86	8	COc1ccc(-c2nc3cc(-c4csc(C(=O)NCC(C)C)c4)cnc3[nH]2)cc1
